Measured values: paper PMC8652888, “Angiogenesis, Anti-Tumor, and Anti-Metastatic Activity of Novel α-Substituted Hetero-Aromatic Chalcone Hybrids as Inhibitors of Microtubule Polymerization” (Frontiers in Chemistry, 2021)
Read-outs that look alike come from different tables or passages of the source.

Key:
[1] = system: U937; assay: Antiproliferative activity, CCK-8 assay; format: cell-based; conditions: Homo sapiens, U-937
Method: (§1) The synthesized compounds were first evaluated for their cytotoxic effect on MCF-7 (human breast adenocarcinoma), U937 (histiocytic lymphoma cancer), HepG2 (human liver cancer) cells, and MGC-803 (human gastric cancer) using the SRB and CCK-8 assay. As reference compounds CA-4 and colchicine were included.
(§2) The primary tumor cells were purchased from a professional biomedical company. First, the primary tumor cells were incubated in a cell culture incubator at 37°C and 5% CO2. After the cell fusion reached 85%–95%, subculture was performed, and the tumor cells obtained at this time were used for subsequent related experiments. The CCK-8 method was used to inhibit the proliferation of U937 tumor cells, and the SRB method was used to inhibit the proliferation of MCF7 and HepG2 tumor cells.
The cells in the logarithmic growth phase were seeded in a 96-well plate at 8,000/well, and the drug-containing medium and cell suspension were added to the well. Three wells were added with the blank medium as the blank group. The 96-well plate was incubated for 72 h in a 37°C, 5% CO2 incubator. The 10 μl of CCK-8 dye solution was added to each well, and the incubation continued for 3–4 h.

[2] = system: MCF-7; assay: Antiproliferative activity, SRB assay; format: cell-based, human; conditions: Homo sapiens;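 also: proliferation of MCF7 cells quantified by sulforhodamine B staining, with optical density read at 560 nm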
[3] = system: HepG2; assay: Antiproliferative activity, SRB assay; format: cell-based, human; conditions: Homo sapiens, HepG2
Method: as §1, §2
Cells were distributed into 96-well plates with a density of 3 × 10^3–4 × 10^3 cells per well and incubated for 24 h in a 5% CO2 incubator at 37°C, followed by treatment with study compounds at different concentrations at 37°C for 72 h. One hundred microliters of 10% (w/v) trichloroacetic acid was added to each well, fixed at 4°C for 30 min, and dried at 65°C. Then 100 μl of 0.4% SRB was added to each well and stained on a shaker for 20 min at room temperature. The excess dye solution was washed with newly prepared 1% glacial acetic acid and dried at 65°C. One hundred fifty microliters of 10 mM unbuffered Trisbase was added to each well of the plate and shaken for 5 min to dissolve the dye. The microplate reader measured the optical density (OD) at a wavelength of 560 nm.

[4] = 72 h, triplicate, mean ± SD, read-out: IC50 ± SD, U937
[5] = supplement raw data of table 2, read-out: IC50(U937)
[6] = MCF7, 72 h, 72 h, triplicate, mean ± SD, read-out: IC50 ± SD, MCF-7
[7] = 72 h, triplicate, mean ± SD, read-out: IC50 ± SD, HepG2
[8] = supplement raw data of table 2, read-out: IC50(Hepg2)
[9] = MCF7, supplement raw data of table 2, read-out: IC50(MCF-7)

IC50 [1, 4] [µM]	IC50 [1, 5] [µM]	IC50 [2, 6] [nM]	IC50 [3, 7] [nM]	IC50 [3, 8] [nM]	melting point [°C]	IC50 [2, 9] [nM]	SMILES
0.353 ± 0.006	0.353	225 ± 5	259 ± 5	259	119.7 to 120.9		COc1cc(C(=O)/C(C)=C/c2cccc3c2OCO3)cc(OC)c1OC [Compound 7s, (E)-3-(benzo[d][1,3]dioxol-4-yl)-2-methyl-1-(3,4,5-trimethoxyphenyl)prop-2-en-1-one]
> 20		> 20000	> 20000		168.3 to 169.5		COc1cc(C(=O)/C(C#N)=C/c2cc3ccccc3o2)cc(OC)c1OC [Compound 8h, (E)-3-(benzofuran-2-yl)-2-(3,4,5-trimethoxybenzoyl)acrylonitrile]
1.18 ± 0.037		1410 ± 21	879 ± 7	879	113.2 to 115.1		COc1cc(C(=O)/C(C)=C/c2oc3ccccc3c2C)cc(OC)c1OC [Compound 7i, (E)-2-methyl-3-(3-methylbenzofuran-2-yl)-1-(3,4,5-trimethoxyphenyl)prop-2-en-1-one]
24.9 ± 2.02	24.9	> 20000	> 20000		201.8 to 203.1		COc1cc(C(=O)/C(C#N)=C/c2nc3ccccc3n2C)cc(OC)c1OC [Compound 8r, (E)-3-[1-methyl-1H-benzo (d)imidazol-2-yl]-2-(3,4,5-trimethoxybenzoyl)acrylonitrile]
0.224 ± 0.007		254 ± 10	116 ± 7		50.1 to 53.2	255	COc1cc(C(=O)/C(C)=C/c2cc3ccccc3o2)cc(OC)c1OC [Compound 7h, (E)-3-(benzofuran-2-yl)-2-methyl-1-(3,4,5-trimethoxyphenyl)prop-2-en-1-one]
> 20		> 20000	> 20000		> 260		COC(=O)c1ccc2[nH]cc(/C=C(\C#N)C(=O)c3cc(OC)c(OC)c(OC)c3)c2c1 [Compound 8e, methyl(E)-3-(2-cyano-3-oxo-3-(3,4,5-trimethoxyphenyl)prop-1-en-1-yl)-1H-indole-5-carboxylate]
0.166 ± 0.003	0.166	187 ± 3	116 ± 1	116	81.4 to 83.2	187	COc1cc(C(=O)/C(C)=C/c2cc3ccccc3s2)cc(OC)c1OC [Compound 7o, (E)-3-(benzo[b]thiophen-2-yl)-2-methyl-1-(3,4,5-trimethoxyphenyl)prop-2-en-1-one]
> 20		> 20000	> 20000		136.7 to 138.5		COc1cc(C(=O)/C(C#N)=C/c2oc3ccccc3c2C)cc(OC)c1OC [Compound 8i, (E)-3-(3-methylbenzofuran-2-yl)-2-(3,4,5-trimethoxybenzoyl)acrylonitrile]

More lines, now with the values behind:

SMILES	IC50 [1, 4] [µM]	IC50 [1, 5] [µM]	IC50 [2, 6] [nM]	IC50 [3, 7] [nM]	IC50 [3, 8] [nM]	melting point [°C]	IC50 [2, 9] [nM]
COc1cc(C(=O)/C(C#N)=C/c2ccc3occc3c2)cc(OC)c1OC [Compound 8m, (E)-3-(benzofuran-5-yl)-2-(3,4,5-trimethoxybenzoyl)acrylonitrile]	> 20		> 20000	> 20000		169.7 to 172.1	
COc1cc(C(=O)/C(C#N)=C/c2cc3c(cc2Br)OCO3)cc(OC)c1OC [Compound 8t, (E)-3-[6-bromobenzo(d)(1,3)dioxol-5-yl]-2-(3,4,5-trimethoxybenzoyl)acrylonitrile]	> 20		> 20000	> 20000		207.1 to 209	
COc1cc(C(=O)/C(C#N)=C/c2cc3c(cc2[N+](=O)[O-])OCO3)cc(OC)c1OC [Compound 8k, (E)-3-[6-nitrobenzo(d)(1,3)dioxol-5-yl]-2-(3,4,5-trimethoxybenzoyl)acrylonitrile]	14.31 ± 0.127	14.3	16430 ± 42	18740 ± 35	18700	160.1 to 163.8	
COc1cc(C(=O)/C(C#N)=C/c2c(C)[nH]c3ccccc23)cc(OC)c1OC [Compound 8b, (E)-3-(2-methyl-1H-indol-3-yl)-2-(3,4,5-trimethoxybenzoyl)acrylonitrile]	> 20		> 20000	> 20000		216.5 to 218.2	
COc1cc(C(=O)/C(C#N)=C/c2cc3ccccc3s2)cc(OC)c1OC [Compound 8o, (E)-3-[benzo(b)thiophen-2-yl]-2-(3,4,5-trimethoxybenzoyl)acrylonitrile]	> 20		14740 ± 141	1701 ± 13		187.5 to 189.3	
COc1cc(C(=O)/C(C#N)=C/c2c[nH]c3cc(Br)ccc23)cc(OC)c1OC [Compound 8g, (E)-3-(6-bromo-1H-indol-3-yl)-2-(3,4,5-trimethoxybenzoyl)acrylonitrile]	2.51 ± 0.029		2161 ± 9	1430 ± 49		266.5 to 268.2	
COc1cc(C(=O)/C(C#N)=C/c2cccc3c2OCO3)cc(OC)c1OC [Compound 8s, (E)-3-[benzo(d)(1,3)dioxol-4-yl]-2-(3,4,5-trimethoxybenzoyl)acrylonitrile]	> 20		> 20000	> 20000		176.3 to 177.8	
COc1cc(C(=O)/C(C#N)=C/c2coc3ccccc23)cc(OC)c1OC [Compound 8j, (E)-3-(benzofuran-3-yl)-2-(3,4,5-trimethoxybenzoyl)acrylonitrile]	> 20		> 20000	> 20000		176.5 to 178.4	
COC(=O)c1ccc2[nH]cc(/C=C(\C)C(=O)c3cc(OC)c(OC)c(OC)c3)c2c1 [Compound 7e, methyl(E)-3-(2-methyl-3-oxo-3-(3,4,5-trimethoxyphenyl)prop-1-en-1-yl)-1H-indole-5-carboxylate]	> 20		> 20000	> 20000		210.4 to 213.7	
COc1cc(C(=O)/C(C#N)=C/c2csc3ccccc23)cc(OC)c1OC [Compound 8p, (E)-3-[benzo(b)thiophen-3-yl]-2-(3,4,5-trimethoxybenzoyl)acrylonitrile]	> 20		> 20000	> 20000		201.8 to 203.1	
COc1cc(C(=O)/C(C#N)=C/c2ccc3oc4ccccc4c3c2)cc(OC)c1OC [Compound 8l, (E)-3-[dibenzo (b,d)furan-2-yl]-2-(3,4,5-trimethoxybenzoyl)acrylonitrile]	> 20		> 20000	> 20000		181.3 to 182.6	
COc1cc(C(=O)/C(C#N)=C/c2ccc3sc4ccccc4c3c2)cc(OC)c1OC [Compound 8q, (E)-3-[dibenzo (b,d)thiophen-2-yl]-2-(3,4,5-trimethoxybenzoyl)acrylonitrile]	52.3 ± 3.66	52.3	> 20000	> 20000		199.7 to 201.1	
COc1cc(C(=O)/C(C#N)=C/c2c(-c3ccccc3)[nH]c3ccccc23)cc(OC)c1OC [Compound 8c, (E)-2-((l2-azaneylidene)-l3-methyl)-3-(2-phenyl-1H-indol-3-yl)-1-(3,4,5-trimethoxyphenyl)prop-2-en-1-one]	4.49 ± 0.433		2100 ± 270	14100 ± 386		253.8 to 255.9	
COc1cc(C(=O)/C(C#N)=C/c2c[nH]c3ccccc23)cc(OC)c1OC [Compound 8a, (E)-3-(1H-indol-3-yl)-2-(3,4,5-trimethoxybenzoyl)acrylonitrile]	0.14 ± 0.041	0.14	934 ± 23	938 ± 8	938	224.2 to 229.3	940
COc1cc(C(=O)/C(C)=C/c2ccc3c(c2)CCO3)cc(OC)c1OC [Compound 7n, (E)-3-(2,3-dihydrobenzofuran-5-yl)-2-methyl-1-(3,4,5-trimethoxyphenyl)prop-2-en-1-one]	0.011 ± 0.002	0.0108	20 ± 2	2 ± 0.1	2.21		19.5
COc1cc(C(=O)/C(C#N)=C/c2ccc3c(c2)CCO3)cc(OC)c1OC [Compound 8n, (E)-3-(2,3-dihydrobenzofuran-5-yl)-2-(3,4,5-trimethoxybenzoyl)acrylonitrile]	9.25 ± 0.141		> 20000	> 20000			
